Values quoted from earlier work as cited in patent US20220175829A1, “Antimicrobial Compositions” (Matoke Holdings Limited, priority 2019, published 2022).

Details: 20° C. and 1 atm

For `O=C(CO)[C@@H](O)[C@H](O)[C@H](O)CO` [Fructose], the solubility is listed as “about 375 g/100 g water”.
